{
  "source": "patent US20260193295A1",
  "about": "“CILAGICIN COMPOUNDS AND METHODS OF USE THEREOF” (priority 2022, published 2026)",
  "key": {"S. aureus USA300 [1]": {"system": "S. aureus USA300", "test": "Membrane depolarization assay (DiSC3(5))", "assay_type": "cell-based, Staphylococcus aureus", "settings": "S. aureus exposed to 8-fold MIC", "procedure": "The effect of cilagicin on membrane depolarization was analyzed using DiSC3(5) dye (Thermo Fisher, USA). Overnight cultures of S. aureus USA300 were harvested and resuspended in PBS (OD600 nm=0.37). Cell suspension (1 mL) and 10 μL of 4 μM DisC3(5) were pre-mixed and incubated in the dark at room temperature for 15 minutes. 50 μL of this mixture was then added to each well of black 96-well flat bottom black microtiter plates. The initial fluorescence intensity of each well was recorded using an infinite 200 PRO (Excitation/Emission=620/670 nm) at 9 second intervals for 15 minutes. 50 μL of a 1 μM solution of each test compound was then added to each well. Gramicidin (30 μM) and melittin (1 μM) were used as positive controls. DMSO was used as the vehicle control. The fluorescence intensity of each well was then monitored at 9 second intervals for another 15 minutes and plotted by Prism 9.0. All assays were performed in biological triplicate (n=3)."}, "[2]": {"settings": "mice, intraperitoneal (IP) injection"}, "S. aureus USA300 [3]": {"system": "S. aureus USA300", "test": "Time-dependent killing assay", "assay_type": "cell-based, Staphylococcus aureus", "settings": "S. aureus USA300, 10x the MIC", "procedure": "An overnight culture of S. aureus USA300 was diluted 1:10,000 in 50 mL fresh LB and incubated at 37° C. with aeration at 220 rpm for 2 hours. Bacteria (3 mL) were challenged with 10× the MIC of each antibiotic (10 μg/mL cilagicin, 10 μg/mL vancomycin). After 1.25, 4, 8, 16 and 24 hours 200 μL aliquots of cells were collected, centrifuged at 10,000×g for 1 minute and then resuspended in 200 μL of sterile PBS (pH 7.4). 50 μL aliquots of 10-fold serial dilutions were plated on LB agar plates. After overnight growth at 37° C., colonies were counted. Experiments were performed three independent times (n=3)."}, "S. aureus": {"system": "S. aureus", "test": "Direct plating of S. aureus on cilagicin-containing agar plates (resistant colonies)", "assay_type": "cell-based, Staphylococcus aureus", "settings": "plating S. aureus directly on cilagicin-containing agar plates"}, "[4]": {"system": "cell wall biosynthesis (UDP-MurNAc-pentapeptide) in S. aureus USA300", "test": "UDP-MurNAc-pentapeptide accumulation assay", "assay_type": "cell-based, Staphylococcus aureus", "settings": "S. aureus cultures exposed at 1xMIC", "procedure": "The effect of cilagicin on cell wall biosynthesis was investigated by tracking the accumulation UDP-MurNAc-pentapeptide in antibiotic treated cultures. Overnight S. aureus USA300 cultures were diluted in fresh LB broth and grown at 37° C. to an OD600 nm of 0.5. They were then treated with 130 μg/mL of chloramphenicol. After incubating at 37° C. for 15 minutes, 1 μg/mL of cilagicin was added. Vancomycin (10 μg/mL) and DMSO were used as positive and vehicle control, respectively. After an incubation of 60 mins, cells (0.5 mL) were harvested, and the cell pellet was resuspended in 30 μL ddH2O. The cell suspension was incubated in boiling water for 15 minutes and spun down at 15,000×g for 5 minutes. The supernatant was then analyzed by UPLC-DAD-MS (Acquity UPLC BEH C18, 2.1×50 mm, 1.7 μM, 130 Å, […] isocratic elution at 97% water:acetonitrile (ACN) for 1 minute, then from 97% to 5% water:ACN over 3 minutes, with constant 0.1% formic acid; negative ionization modes)."}, "[5]": {"test": "Animal infection model (cilagicin, not further described)", "assay_type": "in vivo"}, "[6]": {"test": "Isothermal titration calorimetry (ITC)", "assay_type": "binding", "settings": "25° C., DOPC vesicles", "procedure": "Isothermal titration calorimetry (ITC) The interaction of cilagicin and undecaprenyl phosphate (C55-P, Larodan, SE) or undecaprenyl diphosphate (C55-PP, Larodan, SE) was measured using ITC. Briefly, 0.1 μm of large unilamellar vesicles (LUVs) was prepared by mixing 1,2-dioleoyl-sn-glycero-3-phosphocholine (DOPC, Avanti, AL) and 0.1% of either C55-P or C55-PP in chloroform/methanol (2:1). The resulting lipid suspension was dried under argon gas for 2 hours and then rehydrated in 10 mM HEPES buffer (pH 7.5, 100 mM NaCl). The dried sample was filtered 10 times through an Avanti mini extruder (Avanti, AL) using a 0.1 μM filter membrane. ITC binding experiments were performed using a MicroCal Auto-iTC200. A vesicle suspension of 0.27 μM C55-P or 0.25 μM C55-PP and 2.5 mM DOPC in HEPES buffer was titrated into a freshly made solution of 0.1 mM cilagicin in the same buffer. The titration was conducted under the following conditions: temperature 25° C., reference power 5 uCals-1, syringe-stirring speed 750 rpm, number of injections 19, injection volume 2 μl, and time between injections 150 s. The calorimetric data obtained from the Auto-iTC200 instrument was analyzed using AFFINImeter software. Thermodynamic parameters (enthalpy (AH), entropy (AS), and the equilibrium binding constant (KD)) were calculated using a one-binding site model."}, "S. aureus USA300 [7]": {"system": "S. aureus USA300", "test": "Scanning electron microscopy of treated cells", "assay_type": "cell-based, Staphylococcus aureus", "settings": "S. aureus USA300, 10x the MIC, 0-4 hours", "procedure": "S. aureus USA300 cultures at different time points from the time-kill curve analysis (FIG. 2A, 0, 1, 2, and 4 hours) were used in this study. 30 μl of each cell suspension was spotted onto 12 mm glass or Aclar film round coverslips. A drop of fixative (100 μl of 2% glutaraldehyde, 4% formaldehyde in 0.1 M sodium cacodylate buffer pH 7.2) was added on top of the coverslip which was coated with 0.1% polylysine. After 30 minutes, additional fixative was added to the dish containing the coverslips and samples were left at 4° C. overnight. Samples were gently washed three times with 0.1 M sodium cacodylate buffer (pH 7.2) for 5-10 minutes each time and postfixed with osmium tetroxide 1% in 0.1M sodium cacodylate buffer pH 7.2 for 1 hour at room temperature. After rinsing three times with buffer, samples were dehydrated in a graded series of ethanol concentrations (30%, 50%, 70%, 90%) for 10 minutes each and three times in 100% ethanol (with molecular sieves) for 15 minutes each and then further dried in a critical point drier (Tousimis Autosamdri 931, USA). Samples were coated with 10 nm of iridium using a Leica ACE600 sputter coater."}},
  "note": "Where two headings read alike, the source gives them in different places. Positions of bridges follow the written chain, without caps; N, C: chain ends. Non-standard residues stand in square brackets, D forms with d. Residues, ends and D or L forms follow the SMILES beside them. *: point of attachment. Myristoyl = CCCCCCCCCCCCCC(=O)*; dDab = NCC[C@@H](N)C(=O)O; Dab = NCC[C@H](N)C(=O)O",
  "data": [
    {"smiles": "CCCCCCCCCCCCCC(=O)N[C@H](CO)C(=O)N[C@@H]1C(=O)N[C@H](CCN)C(=O)N[C@@H](CC(=O)O)C(=O)NCC(=O)N[C@H](CC(N)=O)C(=O)N[C@H](CC(=O)O)C(=O)NCC(=O)N[C@@H](Cc2ccc(O)cc2)C(=O)N[C@@H](C(C)C)C(=O)N[C@@H](CCN)C(=O)N[C@@H](Cc2ccccc2)C(=O)O[C@@H]1C", "note": "[Cilagicin] (Myristoyl-[dS]T[dDab]DG[dN][dD]GYV[Dab]F; ester 2-C)", "values": [
      {"measurement": "membrane depolarization (DiSC3(5) fluorescence)", "setting": "S. aureus USA300 [1]", "value": "No response was detected"},
      {"measurement": "plasma bioavailability", "setting": "[2]", "value": "high plasma bioavailability"},
      {"measurement": "time-dependent killing curve analysis, kind of action", "setting": "S. aureus USA300 [3]", "value": "bactericidal"},
      {"measurement": "reduction of the number of viable bacteria", "setting": "S. aureus USA300 [3]; after 4 hours", "value": "more than four orders of magnitude"},
      {"measurement": "colonies that showed more than a 2-fold increase in MIC (2 μg/mL)", "setting": "S. aureus", "value": "never observed"},
      {"measurement": "accumulation of UDP-MurNAc-pentapeptide (LCMS)", "setting": "[4]", "value": "obvious accumulation"},
      {"measurement": "bacterial burden", "setting": "[5]", "value": "did not reduce bacterial burden"},
      {"measurement": "Kd", "setting": "[6]; read-out: dissociation constant (Kd), C55P", "value": 0.022, "unit": "µM"},
      {"measurement": "Kd", "setting": "[6]; read-out: dissociation constant (Kd), C55PP", "value": 0.056, "unit": "µM"},
      {"measurement": "electron microscopy images of treated cells", "setting": "S. aureus USA300 [7]", "value": "cell collapse over time"}
    ]}
  ]
}
